Experimental data from PMC11928584, “H105A peptide eye drops promote photoreceptor survival in murine and human models of retinal degeneration” (Communications Medicine, 2025).
Where a SMILES comes first, the peptide text is derived from it.

Target: T1, recombinant human PEDF-R[1–288] (Homo sapiens, UniProt Q96AD5)
T1 construct: SUMOstar (N); His tag (N); made in house; host or cells: Escherichia coli Rosetta(DE3), co-transformed with pGro7 (groES-groEL)
T1 sequence (Q96AD5 1-288): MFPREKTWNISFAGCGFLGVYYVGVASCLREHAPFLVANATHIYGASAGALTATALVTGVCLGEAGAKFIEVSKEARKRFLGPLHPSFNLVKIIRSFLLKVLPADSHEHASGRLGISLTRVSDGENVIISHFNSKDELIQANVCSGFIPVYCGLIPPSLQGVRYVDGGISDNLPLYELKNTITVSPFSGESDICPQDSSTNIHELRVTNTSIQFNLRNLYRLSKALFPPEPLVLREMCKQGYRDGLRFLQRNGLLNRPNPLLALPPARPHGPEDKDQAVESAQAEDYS
Experiment: Phospholipase A2 activity assay (EnzChek)
Assay type: biochemical
Settings: purified recombinant PEDF-R in the presence of peptides
Excerpt: To obtain the PEDF-R protein, the following procedure was followed. For plasmid construction, the plasmid used for expression was pE-SUMOstar-PEDF-R[1–288] C-terminal TwinStrep tagged. This plasmid contained the coding sequence for the human PEDF-R open reading frame between positions 1 and 288. For transformation: The expression plasmid and pGro7(groES-groEL) were co-transformed into Escherichia coli Rosetta(DE3) to obtain colonies for recombinant protein expression[34],[35]. The transformed cells were plated on Luria-Bertani (LB) agar plate containing 10 μg/ml chloramphenicol and 100 µg/ml ampicillin followed by overnight incubation at 37 °C to obtain colonies. A total of 100 ml of LB media containing 10 μg/ml chloramphenicol and 100 µg/ml ampicillin was inoculated with a single colony and incubated at 37 °C with vigorous shaking overnight. Then, 1 liter of LB media containing 0.5 mg/ml L-(+) arabinose, 2% D-(+)-Glucose, 10 μg/ml chloramphenicol and 100 µg/ml ampicillin was inoculated with 2% of the overnight culture and incubated at 37 °C with vigorous shaking until the O.D.600 nm reached 0.5-0.6. […]
Phospholipase A2 (PLA2) activity was determined using EnzChek™ Phospholipase A2 Assay Kit (Thermo Fisher Scientific, cat. E10217) according to the manufacturer’s instructions and as described before. […] Fluorescence emission was measured at 515 nm with excitation at 460 nm. […]

## CC[C@H](C)[C@H](NC(=O)[C@H](CC(C)C)NC(=O)[C@H](CC(=O)O)NC(=O)[C@H](Cc1ccc(O)cc1)NC(=O)[C@H](Cc1ccc(O)cc1)NC(=O)[C@H](CC(C)C)NC(=O)[C@H](C)NC(=O)[C@H](CCCNC(=N)N)NC(=O)[C@H](C)NC(=O)[C@@H](NC(=O)[C@@H](NC(=O)[C@H](CO)NC(=O)[C@H](CCC(=O)O)NC(=O)[C@@H](NC(=O)[C@H](CCCNC(=N)N)NC(=O)[C@@H](N)CCC(N)=O)[C@@H](C)O)[C@@H](C)CC)[C@@H](C)CC)C(=O)N[C@@H](CO)C(=O)O [H105A] (H-QRTESIIARALYYDLIS-OH)
  stimulation of PLA2 activity of PEDF-R: functional effectors of PEDF-R
